Laboratory results from the supplement of paper PMC10307832.

How the values were obtained:
Test in all cases: relative viability (nuclei count vs DMSO), 5 days (fraction); higher = more cells survive
[1] = compound: COCC[n+]1c2c(n(Cc3cnccn3)c1C)C(=O)c1ccccc1C2=O [YM155] + CC(=O)Nc1cccc(-n2c(=O)n(C3CC3)c(=O)c3c(Nc4ccc(I)cc4F)n(C)c(=O)c(C)c32)c1 [Trametinib] (partner 0.02 µM)
Method in brief: (§1)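 Medians of duplicate plates are given as relative viability. That measure is the nuclei count in treated wells divided by the count in vehicle wells. Counts were taken on 4× images of lung cancer cell lines in 1536-well plates, 5 days after pin-tool dosing the day after seeding with one drug alone or a fixed anchor-drug dose plus five library-drug doses (not always all listed) in √10 steps.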

[2] = compound: CC(C)(C)c1cc(NC(=O)Nc2ccc(-c3cn4c(n3)sc3cc(OCCN5CCOCC5)ccc34)cc2)no1 [Quizartinib] + Nc1nc2[nH]cc(CCc3ccc(C(=O)N[C@@H](CCC(=O)O)C(=O)O)cc3)c2c(=O)[nH]1 [Pemetrexed] (partner 0.2 µM)
Method in brief: as §1

[3] = compound: CC(C)(C)c1cc(NC(=O)Nc2ccc(-c3cn4c(n3)sc3cc(OCCN5CCOCC5)ccc34)cc2)no1 [Quizartinib] + CC(=O)c1c(C)c2cnc(Nc3ccc(N4CCNCC4)cn3)nc2n(C2CCCC2)c1=O [Palbociclib] (partner 0.5 µM)
Method in brief: as §1

[4] = compound: CC(C)(C)c1cc(NC(=O)Nc2ccc(-c3cn4c(n3)sc3cc(OCCN5CCOCC5)ccc34)cc2)no1 [Quizartinib] + O=C(CCCCCCC(=O)Nc1ccccc1)NO [Vorinostat] (partner 1 µM)
Method in brief: as §1

[5] = compound: COCC[n+]1c2c(n(Cc3cnccn3)c1C)C(=O)c1ccccc1C2=O [YM155] + COc1cccc2cc(-c3nc([C@H]4CC[C@H](C(=O)O)CC4)n4ncnc(N)c34)[nH]c12 [OSI-027] (partner 0.5 µM)
Method in brief: as §1

[6] = compound: CC(C)(C)c1cc(NC(=O)Nc2ccc(-c3cn4c(n3)sc3cc(OCCN5CCOCC5)ccc34)cc2)no1 [Quizartinib] + Nc1ncn([C@H]2C[C@H](O)[C@@H](CO)O2)c(=O)n1 [Decitabine] (partner 2 µM)
Method in brief: as §1

NCI-H1648 was tested, and the relative viability ([1]; first compound 0.006325 µM) was 0.902, the relative viability ([1]; first compound 0.02 µM) was 0.444 and the relative viability ([1]; first compound 0.06325 µM) was 0.651. It also gave a relative viability ([2]; first compound 0.003162 µM) of 0.617, a relative viability ([2]; first compound 0.03162 µM) of 0.552 and a relative viability ([2]; first compound 0.1 µM) of 1.05. It also gave a relative viability ([3]; first compound 0.003162 µM) of 0.118, a relative viability ([3]; first compound 0.03162 µM) of 0.277 and a relative viability ([3]; first compound 0.1 µM) of 0.239. The relative viability ([4]; first compound 0.003162 µM) was 0.315, the relative viability ([4]; first compound 0.03162 µM) was 0.32 and the relative viability ([4]; first compound 0.1 µM) was 0.927. The relative viability ([5]; first compound 0.002 µM) was 0.283, the relative viability ([5]; first compound 0.006325 µM) was 0.271 and the relative viability ([5]; first compound 0.02 µM) was 0.259. The relative viability ([5]; first compound 0.06325 µM) was 0.231, the relative viability ([6]; first compound 0.003162 µM) was 0.461 and the relative viability ([6]; first compound 0.03162 µM) was 0.548. For the same cell line, the relative viability ([6]; first compound 0.1 µM) was 0.745.
